Experimental data reported in patent publication US8288367B2, “Substituted estratriene derivatives as 17BETA HSD inhibitors” (Solvay Pharmaceuticals GmBH, priority 2006, dated 2012).

Legend:
[1] = target: T1, recombinant human 17β-HSD2 (Homo sapiens, UniProt P37059); assay: Recombinant 17β-HSD2 assay (HPLC, 3H-estradiol conversion); format: biochemical; details: 50 nM estradiol, 1 mM β-NAD, read-out: Inhibition of rec. 17β-HSD2; for inhibition at 0.1 µM: 100 nM compound; for inhibition at 1 µM: 1 μm compound
T1 construct: made in house; host or cells: Sf9 insect cells (baculovirus, Bac to Bac Expression System)
T1 sequence (P37059 1-387): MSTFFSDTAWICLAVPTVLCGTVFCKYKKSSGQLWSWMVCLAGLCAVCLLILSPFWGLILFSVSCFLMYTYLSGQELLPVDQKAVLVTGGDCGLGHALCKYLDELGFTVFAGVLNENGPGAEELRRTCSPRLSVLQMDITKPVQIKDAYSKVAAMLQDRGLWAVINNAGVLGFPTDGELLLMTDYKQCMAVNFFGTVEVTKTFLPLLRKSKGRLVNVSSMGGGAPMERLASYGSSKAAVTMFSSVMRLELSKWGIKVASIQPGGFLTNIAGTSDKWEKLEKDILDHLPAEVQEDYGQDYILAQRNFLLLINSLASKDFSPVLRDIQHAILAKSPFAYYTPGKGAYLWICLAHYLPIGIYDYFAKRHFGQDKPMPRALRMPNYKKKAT
Method: 17β-HSD1 or 17β-HSD2 purification: Recombinant 17β-HSD1 and 17β-HSD2 baculoviruses were generated by the “Bac to Bac Expression System” (Invitrogen). Recombinant 17β-HSD1 or 17β-HSD2 bacmids were transfected to Sf9 insect cells using “Cellfectin Reagent” (Invitrogen). 60 h later cells were harvested; the fractions including 17β-HSD1 or 17β-HSD2 were isolated as described by Puranen et al. (1994). Aliquots were stored frozen until determination of enzymatic activity. Recombinant 17β-HSD2 assay: Recombinant 17β-HSD2 assay was performed as described for 17β-HSD1 but with following modifications: 6 μg/ml of recombinant protein homogenate, 50 nM Estradiol (Sigma, E8875) as a substrate, 800 000 cpm/ml ^3H-estradiol (PerkinElmer, NET317) as a tracer substrate and 1 mM β-NAD (Sigma N7004) as a co-factor were used. Total radioactivity for estrone and estradiol were determined in each sample and percent inhibition of estrone conversion by the respective inhibitor was calculated. For the calculation of % inhibition the following formula was used: [formula] Percent inhibition was calculated as follows: % inhibition=100−% conversion

[2] = target: T2, recombinant human 17β-HSD1 (Homo sapiens, UniProt P14061); assay: Recombinant 17β-HSD1 assay (HPLC, 3H-estrone conversion); format: biochemical; details: 30 nM estrone, 1 mM NADPH, 30 min RT, read-out: Inhibition of rec. 17β-HSD1; for inhibition at 0.1 µM: 100 nM compound; for inhibition at 1 µM: 0.5 h, 1 μm compound
T2 construct: made in house; host or cells: Sf9 insect cells (baculovirus, Bac to Bac Expression System)
T2 sequence (P14061 1-328): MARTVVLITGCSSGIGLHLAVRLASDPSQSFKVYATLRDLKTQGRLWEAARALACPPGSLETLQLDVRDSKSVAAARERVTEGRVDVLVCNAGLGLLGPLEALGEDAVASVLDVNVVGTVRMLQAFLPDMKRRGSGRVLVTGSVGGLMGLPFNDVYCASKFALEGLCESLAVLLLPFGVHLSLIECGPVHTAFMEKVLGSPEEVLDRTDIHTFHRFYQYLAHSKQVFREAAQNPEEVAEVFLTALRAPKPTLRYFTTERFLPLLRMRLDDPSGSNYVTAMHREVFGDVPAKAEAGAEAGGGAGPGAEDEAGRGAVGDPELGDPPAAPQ
Method: 17β-HSD1 or 17β-HSD2 purification: Recombinant 17β-HSD1 and 17β-HSD2 baculoviruses were generated by the “Bac to Bac Expression System” (Invitrogen). Recombinant 17β-HSD1 or 17β-HSD2 bacmids were transfected to Sf9 insect cells using “Cellfectin Reagent” (Invitrogen). 60 h later cells were harvested; the fractions including 17β-HSD1 or 17β-HSD2 were isolated as described by Puranen et al. (1994). Aliquots were stored frozen until determination of enzymatic activity.
Recombinant 17β-HSD1 assay: Recombinant protein homogenate (0.1 μg/ml) was incubated in 20 mM KH2PO4 pH 7.4 reaction buffer, including protease inhibitors (Complete Protease Inhibitor Cocktail tablet, Roche Diagnostics, 1697498), with 30 nM estrone (Sigma, E9750) as substrate, 800 000 cpm/ml ^3H-estrone (PerkinElmer, NET319001MC) as a tracer substrate, and 1 mM NADPH (Sigma, N1630) as a co-factor for 30 min at RT, in the presence of potential inhibitors at concentrations of 1 μM or 0.1 μM. Inhibitor stock solutions were prepared in DMSO. The enzyme reaction was stopped by addition of trichloroacetic acid (1% final concentration). Samples were centrifuged in a microtiter plate at 4000 rpm for 10 min. Supernatants were applied to reverse phase HPLC on a Waters Symmetry C18 column, equipped with a Waters Sentry Guard column. Isocratic HPLC runs were performed at RT at a flow rate of 1 ml/min of acetonitrile:water 48:52 as running solvent. Radioactivity was monitored in the eluate by a Packard Flow Scintillation Analyzer. Total radioactivity for estrone and estradiol were determined in each sample and percent inhibition of estradiol conversion by the respective inhibitor was calculated
For the calculation of % inhibition the following formula was used:
[formula] Percent inhibition was calculated as follows: % inhibition=100−% conversion

Compound | inhibition at 0.1 µM [1] [%] | inhibition at 1 µM [1] [%] | inhibition at 0.1 µM [2] [%] | inhibition at 1 µM [2] [%]
C[C@]12CC[C@@H]3c4ccc(B(O)O)cc4CC[C@H]3[C@@H]1[C@H](CCC(=O)NCc1ccc3c(c1)OCO3)CC2=O [Compound 34, [15beta-{3-[(1,3-benzodioxol-5-ylmethyl)amino]-3-oxopropyl}-17-oxoestra-1(10),2,4-trien-3-yl]boronic acid] | 3.2 | 0.4 | 47 | 65
C[C@]12CC[C@@H]3c4ccc(B(O)O)cc4CC[C@H]3[C@@H]1[C@H](CCC(=O)N1CCCCC1)CC2=O [Compound 35, [17-oxo-15beta-(3-oxo-3-piperidin-1-ylpropyl)estra-1(10),2,4-trien-3-yl]boronic acid] | 4 | 1.5 | 57 | 56
CCN(CC)C(=O)CC[C@@H]1CC(=O)[C@@]2(C)CC[C@@H]3c4ccc(B(O)O)cc4CC[C@H]3[C@H]12 [Compound 39, [15beta-[3-(diethylamino)-3-oxopropyl]-17-oxoestra-1(10),2,4-trien-3-yl]boronic acid] | 1.8 | -0.6 | 74 | 88
C[C@]12CC[C@@H]3c4ccc(B(O)O)cc4CC[C@H]3[C@@H]1[C@H](CCC(=O)Nc1ccc3c(c1)OCO3)CC2=O [Compound 45, [15beta-[3-(1,3-benzodioxol-5-ylamino)-3-oxopropyl]-17-oxoestra-1(10),2,4-trien-3-yl]boronic acid] | -1 | -1.1 | 49 | 66
C[C@]12CC[C@@H]3c4ccc(B(O)O)cc4CC[C@H]3[C@@H]1[C@@H](CCCC(=O)N1CCOCC1)CC2(F)F [Compound 47, [17,17-difluoro-15alpha-(4-morpholin-4-yl-4-oxobutyl)estra-1(10),2,4-trien-3-yl]boronic acid] | 3.8 | 12.9 | 10 | 61
C[C@]12CC[C@@H]3c4ccc(B(O)O)cc4CC[C@H]3[C@@H]1[C@@H](CCCC(=O)NCc1ccc3c(c1)OCO3)CC2(F)F [Compound 50, [15alpha-{4-[(1,3-benzodioxol-5-ylmethyl)amino]-4-oxobutyl}-17,17-difluoroestra-1(10),2,4-trien-3-yl]boronic acid] | 8 | 32.8 | 40 | 57
COc1ccc(CCN(C)C(=O)CCC[C@H]2CC(F)(F)[C@@]3(C)CC[C@@H]4c5ccc(B(O)O)cc5CC[C@H]4[C@H]23)cc1OC [Compound 51, [15alpha-(4-{[2-(3,4-dimethoxyphenyl)ethyl](methyl)amino}-4-oxobutyl)-17,17-difluoroestra-1(10),2,4-trien-3-yl]boronic acid] | 2.8 | 7.8 | 37 | 62
C[C@]12CC[C@@H]3c4ccc(B(O)O)cc4CC[C@H]3[C@@H]1[C@@H](CCCC(=O)NCc1ccccc1)CC2(F)F [Compound 54, [15alpha-[4-(benzylamino)-4-oxobutyl]-17,17-difluoroestra-1(10),2,4-trien-3-yl]boronic acid] | 7.6 | 25.2 | 41 | 58
Cc1cnc(NC(=O)CC[C@@H]2CC(F)(F)[C@@]3(C)CC[C@@H]4c5ccc(B(O)O)cc5CC[C@H]4[C@H]23)s1 [Compound 58, [17,17-difluoro-15β-{3-[(5-methyl-1,3-thiazol-2-yl)amino]-3-oxopropyl}estra-1(10),2,4-trien-3-yl]boronic acid] | 6.8 | 11.6 | 23 | 55
C[C@]12CC[C@@H]3c4ccc(B(O)O)cc4CC[C@H]3[C@@H]1[C@H](CCC(=O)NC1CCCCC1)CC2(F)F [Compound 59, [15beta-[3-(cyclohexylamino)-3-oxopropyl]-17,17-difluoroestra-1(10),2,4-trien-3-yl]boronic acid] | 0.6 | 15.2 | 69 | 84
C[C@]12CC[C@@H]3c4ccc(B(O)O)cc4CC[C@H]3[C@@H]1[C@H](CCC(=O)NCc1cccnc1)CC2(F)F [Compound 62, [17,17-Difluoro-15beta-{3-oxo-3-[(pyridin-3-ylmethyl)amino]propyl}estra-1(10),2,4-trien-3-yl]boronic acid] | 6.2 | 8.3 | 36 | 56
C[C@]12CC[C@@H]3c4ccc(B(O)O)cc4CC[C@H]3[C@@H]1[C@H](CCC(=O)NCc1ccc(F)cc1F)CC2(F)F [Compound 65, [15beta-{3-[(2,4-difluorobenzyl)amino]-3-oxopropyl}-17,17-difluoroestra-1(10),2,4-trien-3-yl]boronic acid] | 5.8 | 9.8 | 32 | 63
C[C@]12CC[C@@H]3c4ccc(B(O)O)cc4CC[C@H]3[C@@H]1[C@H](CCC(=O)Nc1ccc3c(c1)OCO3)CC2(F)F [Compound 74, [15beta-[3-(1,3-benzodioxol-5-ylamino)-3-oxopropyl]-17,17-difluoroestra-1(10),2,4-trien-3-yl]boronic acid] | 4.9 | 5.5 | 55.6 | 71.4
